Converted amounts (≈) assume the structure as drawn.
Tests used:
[1] = test system: Mycobacterium tuberculosis; assay: Inhibition of MmpL3 in clinical isolates of extensively drug resistant Mycobacterium tuberculosis TF274 after 7 to 14 days by alamar blue assay
[2] = test system: Mycobacterium tuberculosis; assay: Inhibition of MmpL3 in clinical isolates of isoniazid/rifampin resistant Mycobacterium tuberculosis V2475 after 7 to 14 days by alamar blue assay
[3] = test system: Mycobacterium tuberculosis; assay: Inhibition of MmpL3 in clinical isolates of extensively drug resistant Mycobacterium tuberculosis R506 after 7 to 14 days by alamar blue assay
[4] = test system: Mycobacterium tuberculosis; assay: Inhibition of MmpL3 in clinical isolates of isoniazid/rifampin resistant Mycobacterium tuberculosis KZN494 after 7 to 14 days by alamar blue assay
[5] = test system: Mycobacterium tuberculosis H37Rv; assay: Inhibition of MmpL3 TSK54R mutant in Mycobacterium tuberculosis H37Rv assessed as growth inhibition

Row | Compound | MIC [1] [µM] | MIC [2] [µM] | MIC [3] [µM] | MIC [4] [µM] | MIC [5] [µg/mL]
1 | O=C(NC1CCCCCCC1)c1cc2c(Cl)cc(Cl)cc2[nH]1 | 11 (≈ 3.73 µg/mL) | 11 (≈ 3.73 µg/mL) | 6 (≈ 2.04 µg/mL) | – | –
2 | C[C@@H]1[C@H]2C[C@@H](C[C@H]1NC(=O)c1cc3c(F)cc(F)cc3[nH]1)C2(C)C | 6 (≈ 1.99 µg/mL) | 47 (≈ 15.6 µg/mL) | 12 (≈ 3.99 µg/mL) | 12 (≈ 3.99 µg/mL) | 0.0625 to 0.125 (≈ 0.188 to 0.376 µM)
3 | C[C@@H]1[C@H]2C[C@@H](C[C@H]1NC(=O)c1cc3c(Cl)cc(Cl)cc3[nH]1)C2(C)C | 21 (≈ 7.67 µg/mL) | 171 (≈ 62.5 µg/mL) | 21 (≈ 7.67 µg/mL) | 43 (≈ 15.7 µg/mL) | –

From ChEMBL document CHEMBL4477209, “Indole-2-carboxamide-based MmpL3 Inhibitors Show Exceptional Antitubercular Activity in an Animal Model of Tuberculosis Infection” (J Med Chem, 2016)
